Data set [1] concerns Spider mites. Kind of data set: Mite, Systemic. The class given is in vivo, two-spotted mite. As to conditions: Tetranychus urticae, read-out: Mortality, % - Spider Mites Systemic. The protocol:
(§1) In the insecticidal and miticidal tests, the experimental compounds were tested as aqueous emulsions. These emulsions were prepared by dissolving the compound in acetone and dispersing it in distilled water with Triton X-100, an alkylaryl polyether alcohol derived by the reaction of i-octylphenol with ethylene oxide, to give spray emulsions containing the desired concentrations of the compound. These emulsions were then used in standard laboratory tests described below.
Mite, Systemic: Bean plants infested with the two-spotted mites were treated by applying 20 ml. of the formulated test chemical to the soil.

The subject of data set [2] is Bean aphids. Kind of data set: Aphid, Systemic. The format is in vivo, bean aphid. The note with it: Aphis fabae, 48 h, read-out: Mortality, % - Bean Aphids Systemic. The protocol: as §1
Aphid, Systemic: Nasturtium plants infested with the bean aphid were treated by applying 20 ml. of the formulated test chemical to the soil. The degree of aphid control was rated after 2 days.

The subject of another data set is Root-knot nematode. The note with it: in vivo.
The subject of the next data set is Lone Star Ticks. In words: Animal systemic insecticide test in guinea pigs, lone star tick nymphs. The format is in vivo, lone star tick (host: guinea pig). The note with it: Cavia porcellus, 24 h, Table XI, read-out: Lowest Dosage (mg/kg) Causing Complete Kill of Nymphs of Lone Star Ticks. The protocol: (§2) The experimental compounds, formulated as 5% solutions in Tween 20, were administered orally and subcutaneously to guonea pigs which have been artificially infested with nymphs of the lone star tick at 48 hours before treatment, larvae of the secondary screw worm and of the black blow fly at 24 hours before treatment. Mortality was observed 24 hours after the treatment. For the details of the techniques, reference is made to the publications of R. O. Drummond in the Journal of Economic Entomology, particularly in Vol. 60, pages 733-737 in 1967.

The test system of the next data set is Black Blow Flies. In words: Animal systemic insecticide test in guinea pigs, black blow fly larvae. The format is in vivo, black blow fly (host: guinea pig). The note with it: Calliphoridae, in Cavia porcellus, 24 h, Table XI, read-out: Lowest Dosage (mg/kg) Causing Complete Kill of Larvae of Black Blow Flies. The protocol:
as §2

Another data set relates to Secondary Screw Worms. In words: Animal systemic insecticide test in guinea pigs, secondary screw worm larvae. The format is in vivo, secondary screw worm (host: guinea pig). As to conditions: Cavia porcellus, 24 h, Table XI, read-out: Lowest Dosage (mg/kg) Causing Complete Kill of Larvae of Secondary Screw Worms. The protocol: as §2
In data set [3] the test system is Southern army worm. The note with it: in vivo.
For data set [4], the system named is Spider mites. As to conditions: in vivo, 48 h.
In data set [5] the test system is Bean aphids. As to conditions: bean aphid, in vivo, 48 h.
A further data set can be described thus: in vivo. As to conditions: rat, po.
The test system of data set [6] is Southern army worm. Kind of data set: whole plant or invertebrate. As to conditions: Spodoptera eridania, read-out: Mortality, % - Southern ArmyWorm.
In data set [7] the test system is Mexican bean beetle. In words: whole plant or invertebrate. The note with it: Epilachna varivestis.
Data set [8] concerns Spider mites. Kind of data set: whole plant or invertebrate. The note with it: Tetranychus urticae; for mortality at 10 ppm: read-out: Spider Mites Mortality,%.
The test system of data set [9] is Bean aphids. In words: whole plant or invertebrate. The note with it: Aphis fabae, 48 h.
In a further data set the test system is House fly. Kind of data set: whole plant or invertebrate. As to conditions: Musca domestica, 48 h.
The next data set relates to Lepidoptera. Kind of data set: Activity against Lepidoptera / pest spectrum (in words). The format is in vivo.
Data set [10] deals with powdery mildew fungus (Erysiphe Polygoni). Kind of data set: Bean Powdery Mildew eradicant test. The format is in vivo. As to conditions: Table III; 200 ppm.
Data set [11] concerns bean rust fungus (Uromyces Phaseoli). In words: Bean Rust eradicant test. The class given is in vivo. The note with it: Table III; 200 ppm. The protocol:
In these tests, the experimental compounds were tested in aqueous emulsions, prepared in the same manner as was previously described above with respect to the insecticidal and miticidal tests.
Pinto bean plants with fully expanded primary leaves were inoculated with spores of the bean rust fungus (Uromyces Phaseoli) and incubated for 24 hours. The test were then carried out as described above for Bean Powdery Mildew.

The test system is the same in data set [12]. Kind of data set: Bean Rust systemic eradicant test. The class given is in vivo. As to conditions: Table III; 200 ppm. The protocol: Pinto bean plants were inoculated 24 hours prior to use as above and the soil in the pot was then treated with 20 ml. of an emulsion of the test chemical. The rest of the test and the evaluation were then carried out an above for Bean Powdery Mildew.

The test system of a further data set is Sclerotium. In words: Sclerotium soil fungicide test. The class given is in vivo. The note with it: Table III; 100 lb/acre. The protocol:
Sterilized soil was inoculated with Solerotium and placed into a 4-ounce "Dixie cup", and drenched with 20 ml. of an emulsion of the test chemical. The cup was then incubated for 2 days at 70° F. Thereafter, the amount of mycelial growth on the soil surface was rated and the control by the chemical estimated accordingly.

Data set [13] deals with Corn rootworm larvae. As to conditions: in vivo, 120 h.
The test system of data set [14] is Mexican bean beetle. The note with it: in vivo.
In data set [15] the test system is Corn rootworm larvae. In words: whole plant or invertebrate. The note with it: soil, 120 h.
A further data set relates to warm blooded animals. In words: Toxicity towards warm blooded animals (in words). The format is in vivo. The note with it: summary statements. The protocol: Each compound tested was administered orally by stomach tube to five to eight groups of five male albino rate of the Sprague Dawley strain, weighing 220 to 300 grams at various dosage levels. Following incubation, the animals were closely observed for mortality and toxic effects at intervals for 14 days. Statistical analysis of the mortality data was carried out to determine the median lethal dosages (LD50) according to the method of W. R. Thompson as described in the Journal Bact. Rev. in Vol. 11, pages 115-145 in 1947, utilizng the tables of H. J. Horn published in the Journal Biometrics, Vol. 12, page 311 in 1956. The LD50 dosages are expressed in mg weights of test material per kg weight of rat used.

The test system of data set [16] is insects, mites and nematodes. Kind of data set: Overall pesticidal activity in the greenhouse and laboratory tests (in words). The class given is in vivo. The protocol:
In Examples 14-29 which follow, the new dithiophosphate compositions of the present invention were tested in the greenhouse and in the laboratory to determine their biological activity. Structurally related, known compounds, usually leading cmmercial compounds, were also tested side-by-side to determine the relative pesticidal effectiveness of the new compounds.
as §1

The test system of the next data set is Corn earworm. In words: Field control of corn earworm (Example 27). The class given is in vivo. The note with it: Table XV; 1 lbs/acre; untreated check 45. From the text:
Spring Gold sween corn was planted on March 21. Each treatment was made on a 48 ft. row and was replicated three times. Ratings represent the total counts from all three replicates. Except for insecticide treatment the plots were managed according to recommended farming practice for the area. Application of the experimental compositions at the 1 lb. active ingredient per acre were made and readings were made to determine the number of infested corn ears.

The mark [17] stands for this setting: read-out: Mexican Bean Beetles Mortality,%.
Setting [18] is: read-out: Bean Aphids Mortality,%.
Setting [19] is: read-out: Corn Rootworm Mortality,%.

Like-named read-outs stand apart in the source and are kept apart here.

As to `CCCSP(=O)(OCC)SCCSC` (centres unmarked) [Example 1, O-Ethyl S-1-Propyl S'-2-Methylthioethyl Dithiophosphate], the mortality (in general, the percentage killed) at 250 ppm was 100% in the data set with Spider mites [1]; 95% in the data set with Bean aphids [2]; 100% in the data set on Southern army worm [6]; 100% with Mexican bean beetle [7] (read-out: Mortality, % - Mexican Bean Beetle); 100% in the data set on Mexican bean beetle [7] (read-out: Mortality, % - Mexican Bean Beetles); 100% with Spider mites [8] (48 h, read-out: Mortality, % - Spider Mites Contact). Also, the mortality at 250 ppm with Bean aphids [9] (read-out: Mortality, % - Bean Aphids Contact) came to 100%; in the data set on House fly (read-out: Mortality, % - House Flies), 100%. For the same compound, in the data set with Root-knot nematode, the “Nematode Control,% at 25 lb/acre” value turned out to be 90%. The minimal effective dose in the data set on Lone Star Ticks (oral) is 50 mg/kg; with Lone Star Ticks (sc, subcutaneous) it was 50 mg/kg; with Black Blow Flies (oral), 50 mg/kg; with Black Blow Flies (sc, subcutaneous), 50 mg/kg; in the data set on Secondary Screw Worms (oral) it was 50 mg/kg; in the data set with Secondary Screw Worms (sc, subcutaneous), 50 mg/kg. In the data set with Southern army worm [3], the “Mortality, % - Southern ArmyWorm” value is 100%. Also, in the data set on Spider mites [4] (two-spotted spider mite), the “Mortality, % - Spider Mites Contact” value is listed as 100%. Besides, the “Mortality, % - Bean Aphids Contact” value in the data set with Bean aphids [5] was 100%. Moreover, the LD50 (commonly the dose expected to kill half of the subjects tested) at 336 h in the data set “in vivo” amounted to 46 mg/kg.

`CCCSP(=O)(OCC)SCC(C)SC(C)=O` (centres unmarked) [Example 13, O:ETHYL S-1-PROPYL S-2-ACETYLTHIOPROPYL DITHIOPHOSPHATE]: in the data set with Lepidoptera, the “pesticidal spectrum / activity against Lepidoptera” value was “shows the broad pesticidal spectrum and the specific activity against Lepidoptera”.

On to `CCOP(=O)(SCC)SCC(C)SCC` (centres unmarked) [Example 29, O,S-Diethyl S'-2-Ethylthiopropyl Dithiophosphate], for which the “Pest Control, % - Nematode Control (25 lb/acre)” value with Root-knot nematode is listed as 20%. For the same compound, the “Control of Foliar Fungi, % - Bean Mildew Eradicant” value in [10] is 0%. The “Control of Foliar Fungi, % - Bean Rust Eradicant” value in data set [11] stood at 0%. Besides, the “Control of Foliar Fungi, % - Bean Rust Systemic Eradicant” value in [12] was found to be 0%. Besides, the “Control of Sclerotium, %” value with Sclerotium came out at 0%. The “Pest Control, % - Corn Rootworm (0.25 ppm)” value in the data set on Corn rootworm larvae [13] turned out to be 20%.

Consider `CCCSP(=O)(OCC)SCC(C)SCC` (centres unmarked) [Example 33, O-Ethyl S-1-Propyl S'-2-Ethylthiopropyl Dithiophosphate], for which, in the data set with Root-knot nematode, the “Nematode Control,%” value was found to be 100% and the “Pest Control, % - Nematode Control (25 lb/acre)” value turned out to be 100%. For the same compound, in data set [10], the “Control of Foliar Fungi, % - Bean Mildew Eradicant” value is on record as 70%. Besides, the “Control of Foliar Fungi, % - Bean Rust Eradicant” value in data set [11] is 80%. For the same compound, the “Control of Foliar Fungi, % - Bean Rust Systemic Eradicant” value in data set [12] came to 90%. The “Control of Sclerotium, %” value in the data set on Sclerotium is listed as 60%. Further, the “S.Armyworm Mortality,%” value in the data set with Southern army worm [3] is reported as 100%. For the same compound, the “Pest Control, % - Mex. Bean Beetle” value in the data set with Mexican bean beetle [14] stood at 100%. Also, the “Pest Control, % - Spider Mites Contact” value in the data set with Spider mites [4] (spider mite) was determined as 100%. Also, the “Pest Control, % - Bean Aphids Contact” value in the data set on Bean aphids [5] is 100%. Also, in the data set with Corn rootworm larvae [13], the “Pest Control, % - Corn Rootworm (0.25 ppm)” value was 100%. In addition, the LD50 at 336 h in the data set “in vivo” was 214 mg/kg. Also, the mortality at 50 ppm in the data set on Mexican bean beetle [7] (setting [17]) was determined as 70%. Also, the mortality at 10 ppm in the data set with Spider mites [8] worked out at 100%. Moreover, the mortality at 50 ppm in the data set on Bean aphids [9] (setting [18]) was 100%. Also, the mortality at 2.5 ppm with Corn rootworm larvae [15] (setting [19]) is 100%.

`CCCSC(C)CSP(=O)(OCC)SCCC` (centres unmarked) [Example 34, O-Ethyl S-1-Propyl S'-2-n-Propylthiopropyl Dithiophosphate]: the “Nematode Control,%” value with Root-knot nematode came to 100%. Besides, the “toxicity (in words)” value in the data set on warm blooded animals was “particularly low toxicity”. Also, in the data set with Southern army worm [3], the “S.Armyworm Mortality,%” value worked out at 100%. In the data set “in vivo”, this compound displayed an LD50 at 336 h of 422 mg/kg. Moreover, the mortality at 50 ppm in the data set with Mexican bean beetle [7] (setting [17]) and in the data set on Bean aphids [9] (setting [18]) was 100% each time. For the same compound, the mortality at 10 ppm in the data set on Spider mites [8] is 100%. Besides, the mortality at 2.5 ppm with Corn rootworm larvae [15] (setting [19]) worked out at 100%.

Consider `CCCCCCSC(C)CSP(=O)(OCC)SCCC` (centres unmarked) [Example 36, O-Ethyl S-1-Propyl S'-2-n-Hexylthiopropyl Dithiophosphate], for which the “Nematode Control,%” value with Root-knot nematode amounted to 10%. Besides, in [16] (summary statements), the “pesticidal activity (in words)” value is “decreased level of activity”. The “S.Armyworm Mortality,%” value in the data set on Southern army worm [3] is listed as 100%. Moreover, the mortality at 50 ppm worked out at 100% in the data set with Mexican bean beetle [7] (setting [17]) and 50% in the data set with Bean aphids [9] (setting [18]). Also, the mortality at 10 ppm in the data set with Spider mites [8] worked out at 90%. The mortality at 2.5 ppm in the data set on Corn rootworm larvae [15] (setting [19]) was found to be 0%.

For the compound `CCCSP(=O)(OCC)SCC(SC)C(C)(C)C` (centres unmarked) [Example 39, O-Ethyl S-1-Propyl S'-2-Methylthio-3,3-Dimethylbutyl Dithiophosphate], the “insecticidal activity at 50 ppm (in words)” value in [16] (50 ppm) is recorded as “very little insecticidal activity”. The “Mortality Produced at 50 ppm, % - Southern Army Worm” value with Southern army worm [3] (southern armyworm) was determined as 0%. Moreover, the mortality at 50 ppm with Mexican bean beetle [7] (read-out: Mortality Produced at 50 ppm, % - Mexican Bean Beetles) turned out to be 0%; with Spider mites [8] (read-out: Mortality Produced at 50 ppm, % - Spider Mites), 100%; in the data set with Bean aphids [9] (read-out: Mortality Produced at 50 ppm, % - Bean Aphids), 30%; in the data set with House fly (read-out: Mortality Produced at 50 ppm, % - Houseflies), 20%. Further, in the data set on Corn rootworm larvae [15] (read-out: Corn Rootworm Mortality, % at 2.5 ppm), the mortality at 2.5 ppm amounted to 80%.

With `CCCSP(=O)(OCC)SCC(C)SC` (centres unmarked) [drawing 57], the “Number of Infested Corn Ears (150 Ears Sampled)” value with Corn earworm was 4.
